Data reported in US7364866B2, “Drosophila G protein coupled receptors, nucleic acids, and methods related to the same” (Pharmacia & Upjohn Company, priority 1999, dated 2008).
Non-standard residues stand in square brackets, D forms with d. No end group written: not given here. sY = N[C@@H](Cc1ccc(OS(=O)(=O)O)cc1)C(=O)O

Assays:
DmGPCR9 [1] = test: [35S]GTPγS binding assay, membranes of transfected CHO cells; format: biochemical, Drosophila melanogaster; details: membranes from CHO cells transfected with DmGPCR9
Sequence of DmGPCR9 (as listed by the source): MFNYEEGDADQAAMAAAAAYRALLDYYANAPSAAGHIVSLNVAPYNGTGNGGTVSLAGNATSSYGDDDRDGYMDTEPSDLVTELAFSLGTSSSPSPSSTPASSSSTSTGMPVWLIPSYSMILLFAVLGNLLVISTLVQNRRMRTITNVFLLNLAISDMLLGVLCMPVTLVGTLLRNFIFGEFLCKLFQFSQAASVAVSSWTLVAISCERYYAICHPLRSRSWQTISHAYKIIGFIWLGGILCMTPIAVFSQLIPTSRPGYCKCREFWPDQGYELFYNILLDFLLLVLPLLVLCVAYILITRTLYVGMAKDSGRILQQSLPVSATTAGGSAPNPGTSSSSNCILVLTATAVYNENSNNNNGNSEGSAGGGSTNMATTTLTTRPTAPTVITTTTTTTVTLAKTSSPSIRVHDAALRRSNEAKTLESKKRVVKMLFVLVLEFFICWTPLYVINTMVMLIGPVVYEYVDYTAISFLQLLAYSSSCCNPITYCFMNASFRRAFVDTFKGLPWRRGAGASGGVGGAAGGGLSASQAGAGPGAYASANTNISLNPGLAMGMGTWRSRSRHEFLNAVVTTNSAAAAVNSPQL
Procedure: The transfected cells were washed once with ice-cold Dulbecco's phosphate buffered saline (PBS), 5 ml per 10 cm plate, and scraped into 5 ml of the same buffer. Cell suspensions from multiple plates were combined and centrifuged at 500×g for 10 min at 4° C. The cell pellet was reconstituted in ice-cold TEE (25 mM TRIS, 5 mM EGTA, 5 mM EDTA). Convenient aliquots were snap-frozen in liquid nitrogen and stored at −70° C. After thawing, the cells were homogenized and centrifuged at 4° C., 500×g for 5 minutes to pellet nuclei and unbroken cells. The supernatant was centrifuged at 47,000×g for 30 minutes at 4° C. […] Membrane protein concentration was determined using the BCA Protein Assay Reagent from Pierce (Rockford, Ill.) and BSA as standard. […]
Ligand-induced stimulation of [^35S]GTPγS binding was expressed as fold increase over the basal activity with no ligand added. Each treatment was run either in triplicate, or, on occasion, in duplicate, and the binding (cpm) was calculated as means +/− standard deviations. Dose-response curves for the receptor/ligand systems were analyzed using a non-linear least square SAS model, y=Bmax X/(Kd+X). Other dose-response curves were analyzed using Prism (GraphPad Software, Inc. San Diego, Calif.) and the following equation y=Bottom+(Top−Bottom)/(1+10^LogEC50-X). […]

DmGPCR9 [2] = test: calcium mobilization assay (FLIPR); format: cell-based, Drosophila melanogaster; details: given in words
Procedure: Changes in intracellular calcium levels are another recognized indicator of G protein-coupled receptor activity, and such assays can be employed to screen for modulators of DmGPCR activity. For example, CHO cells stably transfected with a DmGPCR expression vector are plated at a density of 4×10^4 cells/well in Packard black-walled, 96-well plates specially designed to discriminate fluorescence signals emanating from the various wells on the plate. The cells are incubated for 60 minutes at 37° C. in modified Dulbecco's PBS (D-PBS) containing 36 mg/L pyruvate and 1 g/L glucose and one of four calcium indicator dyes (Fluo-3™ AM, Fluo-4™ AM, Calcium Green™-1 AM, or Oregon Green™ 488 BAPTA-1 AM), each at a concentration of 4 μM. […]
A calcium response is initiated by the addition of one or more candidate receptor agonist compounds, calcium ionophore A23187 (10 μM; positive control), or ATP (4 μM; positive control). Fluorescence is measured by Molecular Device's FLIPR with an argon laser (excitation at 488 nm). […] Basal fluorescence of cells was measured for 20 seconds prior to addition of candidate agonist, ATP, or A23187, and the basal fluorescence level was subtracted from the response signal. The calcium signal is measured for approximately 200 seconds, taking readings every two seconds. […]

In the case of “FDDY(SO3H)GHLRF-NH2 (FDD[sY]GHLRF-NH2; N-terminus assumed; SMILES CC(C)C[C@H](NC(=O)[C@H](Cc1c[nH]cn1)NC(=O)CNC(=O)[C@H](Cc1ccc(OS(=O)(=O)O)cc1)NC(=O)[C@H](CC(=O)O)NC(=O)[C@H](CC(=O)O)NC(=O)[C@@H](N)Cc1ccccc1)C(=O)N[C@@H](CCCNC(=N)N)C(=O)N[C@@H](Cc1ccccc1)C(N)=O)”, the GTPγS responses (DmGPCR9 [1]) was “no GTPγS responses” and the “EC50, calcium mobilization assay” value (DmGPCR9 [2]) was “low nanomolar range”.
